Source: article PMC6424980, “Distinct G protein-coupled receptor phosphorylation motifs modulate arrestin affinity and activation and global conformation” (Nature Communications, 2019)
Entries after “also recorded” stand apart in the source; their conditions may differ.

Columns and labels:
arrestin-1 (F85A, F197A) = assay: Limited trypsin digestion of arrestin-1 in presence of peptide; assay type: biochemical, bovine; details: arrestin:peptide 1:1.2, 35 °C, SDS PAGE
Source text: (§1) Synthesized cDNAs of bovine arrestin-1, human arrestin-2 and human arrestin-3 were ordered from Genewiz, amplified by PCR and cloned (Supplementary Information Table 5) into the pET-15b vector (Novagen), using the Gibson Assembly protocol. The constructs contained an N-terminal hexa histidine tag linked by a linker that contained a Tobacco Etch Virus cleavage site (TEV; […]). PCR was used to introduce the monomerizing arrestin-1 mutations (F85A, F197A)[58]. Note that this mutant was employed for fluorescence anisotropy, trypsin digestion, and NMR experiments. Wild-type arrestin-2 and -3 were used for fluorescence anisotropy and trypsin digestion experiments. […] The arrestin-1 in this construct had the wild-type sequence. Note that this construct differs slightly from that previously published[59],[60] and was optimized for purification. We verified the functionality of this fusion construct using the standard centrifugal pull-down assay using phosphorylated rhodopsin in native ROS membranes.
Arrestin (60 µg) was mixed at a 1 to 1.2 molar ratio with peptide and preincubated at RT for 5 min before 1 μl of 0.15 mg/ml trypsin stock was added. The enzymatic digestion was carried out at 35 °C (20 mM Bis-Tris propane pH 7.0, 150 mM NaCl, 10 mM 2‑Mercaptoethanol and 2 mM EDTA). At certain time points (5, 15, 30, 60, 90 min), 5 μl aliquots were quenched with heat incubation in the presence of 20 μl SDS loading buffer (95 °C, 5 min) and then subjected to SDS PAGE. Bands were visualized with InstantBlue (Expedeon).

arrestin-2 = assay: Fluorescence anisotropy binding of fluorescein-labelled peptides to arrestin-2; parameters: species or system human
Source text: as §1
0.1–0.2 mg of lyophilized peptide was dissolved in 50 µl of 50 mM phosphate-buffered saline (PBS) buffer at pH 7.0, and then two molar equivalents of fluorescein-5-maleimide dye stock dissolved in dimethylsulfoxid was added. The reaction was carried out at RT in the dark. […] It was dissolved in 50 µl of 20 mM Bis-Tris propane pH 7.0 and 150 mM NaCl and its concentration was determined by absorbance. […]

[1] = tested on: arrestin-1 mutants I72B and F197NBD with nonphosphorylated light-activated rhodopsin in ROS membranes; assay: Ternary complex formation (site-directed fluorescence and centrifugal pull-down); assay type: biochemical, bovine; details: 10 µM rhodopsin in ROS, 1 µM arrestin-1 I72B or F197NBD, 100 µM peptide, pH 7
Source text: Recombinant bovine arrestin-1 cloned into the pET15b vector was expressed and purified as described. The basic construct was a modified wild-type sequence that contained no native cysteines (C63A, C128S and C143A) nor tryptophans (W194F). Single cysteine residues were introduced by PCR at sites 72 or 197 as previously described. The I72C mutant was labeled with monobromobimane (Thermo Fisher) and is referred to as I72B. The F197C mutant was labeled with N,N′-Dimethyl-N-(Iodoacetyl)-N′-(7-Nitrobenz-2-Oxa-1,3-Diazol-4-yl)Ethylenediamine (IANBD amide, Thermo Fisher) and is referred to as F197NBD. Labeling was carried out as previously described[43],[61]. Both labeled mutants were assessed to be functionally similar to wild-type arrestin-1 using the Extra Meta II assay, which determines the ability of arrestin-1 to bind and stabilize the active Meta II form of rhodopsin[64].
Under dim-red light, samples were prepared that contained nonphosphorylated rhodopsin (10 µM) in ROS membranes, 1 µM arrestin-1 I72B or F197NBD, ±100 µM peptide in 50 mM HEPES, 130 mM NaCl, pH 7 (150 or 200 µl sample volume). One hundred microliters of the sample was used for fluorescence measurements, and the remainder was used for the centrifugal pull-down assay (50 µl per assay). Steady-state fluorescence measurements were performed using a SPEX Fluorolog (1680) instrument in front-face mode. Bimane fluorescence was recorded using an excitation wavelength of 400 nm and emission 424–600 nm, and NBD fluorescence was recorded using an excitation wavelength of 500 nm and emission 524–660 (2 nm step size, 0.5 s integration per point). Excitation slits were narrowed to 0.1−0.2 nm to minimize light-activation of rhodopsin, and emission slits were set at 4 nm. Pull-down analysis was performed by centrifuging samples at 16,000 × g for 10 min at 20 °C. Selected samples were light activated (>495 nm) for 15 s prior to centrifugation (appr. 60 s delay time). Following centrifugation, the supernatants were removed, and the pellets were solubilized in loading buffer containing 2% SDS and subjected to SDS PAGE. Bands were visualized using Coomassie Brilliant Blue.

CDDEASTTVSKTETSQVAPA [5P, multiply phosphorylated rhodopsin C-terminus peptide lacking key site pS343]
limited trypsin digest pattern of arrestin-1 (conformational change, C-tail displacement) (arrestin-1 (F85A, F197A)): inability to induce conformational changes
binding to arrestin-2 (in words) (arrestin-2): bound well
ternary complex formation (arrestin-1, nonphosphorylated rhodopsin, peptide) [1]: significant reduction of ternary complex formation; also recorded: could still stimulate ternary complex formation
